Measured values: paper PMC7643960 (PLoS ONE, 2020)
“Also recorded” adds a separate entry of the source.

Tests used:
mice = conditions: cited from earlier work
[1] = tested on: normal human umbilical vein endothelial cells, fibroblasts and keratinocytes; conditions: cited from earlier work
horses affected by EMM = tested on: horses affected by EMM; parameters: method as in PMID 26772157; conditions: two EMM patients, once a week for 19 consecutive weeks; cited from earlier work
[2] = tested on: different malignancies in five dogs; conditions: cited from earlier work
[3] = Franz-type diffusion cell (FDC) permeation with HPLC analysis; type: in vitro ADME, horse; conditions: any of the FDC experiments
Excerpt: Two different pharmaceutical formulations were provided by Skinomics GmbH, Halle, Germany, for in vitro permeation studies.
Skin from six horses was used for each FDC experiment. The skin from the lateral thorax was dissected at the Institute of Pathology, University of Veterinary Medicine Hannover, Foundation, Hannover, Germany, after euthanasia of the horses at the Clinic for Horses, University of Veterinary Medicine Hannover, Foundation, for reasons unrelated to the present study. Therefore, a prospective approval of the experiments by an animal research ethics committee was not required. Skin samples were stored at -20°C until use (maximum five months). Further skin sample preparation and diffusion experiments were performed as reported. Skin samples were incubated with test formulation 1 for 24 h and with test formulation 2 for 30 min and 24 h, respectively.
The following slices were 20-μm thick. […] A higher permeation rate of the compound was expected for 24-h experiments and, therefore, the 20-μm slices were stored and analyzed separately up to a depth of 310 μm. The slices were then pooled at 5 × 20 μm until a depth of a maximal 910 μm was reached. The cryostat blade was cleaned with tissues soaked in 80% methanol between each cut. The quantity of NVX-207 was determined by an analytic high-performance liquid chromatography (HPLC) method. […]

[4] = tested on: human carbonic anhydrase isoenzyme I; parameters: method as in PMID 15664816; conditions: cited from earlier work

SMILES	side effects after intravenous application (mice)	impact on in vitro survival of normal cells [1]	safety of intralesional injection (horses affected by EMM)	tolerability of intralesional treatment [2]	tumor response to intralesional treatment [2]	NVX-207 in the acceptor medium [3]	inhibition of carbonic anhydrase I [4]
C=C(C)[C@@H]1CC[C@]2(C(=O)OCC(N)(CO)CO)CC[C@]3(C)[C@H](CC[C@@H]4[C@@]5(C)CC[C@H](OC(C)=O)C(C)(C)[C@@H]5CC[C@]43C)[C@@H]12 [NVX-207, 3-acetyl-betulinic acid-2-amino-3-hydroxy-2-hydroxymethyl-propanoate]	did not lead to any side effects	little impact	proved to be safe; also recorded: well tolerated	well tolerated	clinically beneficial tumor response was observed	No NVX-207 was detected	–
C=C(C)[C@@H]1CC[C@]2(COS(N)(=O)=O)CC[C@]3(C)[C@H](CC[C@@H]4[C@@]5(C)CC[C@H](OS(N)(=O)=O)C(C)(C)[C@@H]5CC[C@]43C)[C@@H]12 [BBS, (3β)-Lup-20(29)-ene-3,28-diol, 3,28-disulfamate]	–	–	–	–	–	–	efficient inhibitor
